Experimental data as given in US5869500A, “Pyridone compounds useful in treating Alzheimer's disease” (Hoffmann-La Roche Inc., priority 1996, dated 1999).

Test system: Aβ production in HEK cells over-expressing mutated β-APP (SFAD)
Assay: Aβ production inhibition, sandwich-ELISA in HEK cells, over-expressed mutated β-APP (SE-SFAD)
Type: cell-based, human
Settings: Homo sapiens, HEK293, HEK cells; for IC50: based on the respective plateau of maximum inhibition; for Emax: maximum inhibition plateau, read-out: SE-SFAD max. inhibition %
Description: The effect of test substances on the inhibition of Aβ-amyloid production can be measured in the supernatant of cell cultures of β-APP expressed cells using ELISA tests or other quantitative determination methods for β-APP degradation products. Typically, 8×10^5 cells (e.g. HEK cells, which express recombinant human β-APP variants) are plated out in each well of a culture dish having 24 wells in growth media such as e.g. OPTIMEM (Gibco) and the test compound is then added. After an incubation period of 24 to 48 hours at 37° C. in a 10% CO2 atmosphere the supernatant is removed from the cell cultures and the β-APP degradation products (e.g. Aβ or β-[…]) are determined with the aid of ELISA (or sandwich ELISA) analysis or by means of quantitative immunoprecipitation (after metabolic radiolabelling of the cell proteins). Typically, 300 μl of the cell supernatant are tested according to the state of the art for ELISA tests in culture dishes having 96 wells. In the case of sandwich ELISA for Aβ, the binding antibody can be directed against the first 16 amino acids of Aβ-peptide (e.g. 6E10 Senetek, Maryland Heights, Mo.) and the detection antibody can be directed against amino acids 17-40 or 17-42 of Aβ and carries a detection system such as e.g. peroxidase. A simple ELISA test with an antibody, e.g. 22C11 (Boehringer Mannheim), can be used as the test for […]; the second antibody can be an anti-(mouse) Ig having a detection system, such as e.g. peroxidase. The peroxidase reaction can be carried out e.g. using a TMB substrate (BioRAD) and the measurements can be carried out at 650 nm using an ELISA reading apparatus. […] SE-SFAD signifies the Aβ production inhibition measured using sandwich-ELISA in HEK cells, SFAD signifies over-expressed mutated β-APP, and SE-WT signifies the Aβ production inhibition measured using sandwich-ELISA in HEK cells which over-express Wild type β-APP. The IC50 values are based on the respective plateau of maximum inhibition.

| SMILES | IC50 | Emax |
| --- | --- | --- |
| CCCN(CCOC)C(=O)c1cc(-c2ccc(OCc3ccccc3)cc2)c(=O)n2ccc3c(ncn3C)c12 [Compound 105, 8-(4-Benzyloxy-phenyl)-3-methyl-7-oxo-3,7-dihydro-imidazo[4,5-a]-quinolizine-10-carboxylic acid (2-methoxy-ethyl)-propyl-amide] | 5 µM | 50% |
| Cn1ccnc1COC(=O)c1cc(-c2ccccc2)c(=O)n2ccc3ccsc3c12 [Compound 27, 1-Methyl-1H-imidazol-2-yl-methyl 7-oxo-8-phenyl-7H-thieno[2,3-a]-quinolizine-10-carboxylate methanesulphonate] | 50 µM | 100% |
| CCN(CCOC)C(=O)c1cc(-c2ccc(Oc3ccccc3)cc2)c(=O)n2ccc3ccsc3c12 [Compound 99, 7-Oxo-8-(4-phenoxy-phenyl)-7H-thieno[2,3-a]quinolizine-10-carboxylic acid ethyl-(2-methoxy-ethyl)-amide] | 2.5 µM | 100% |
| O=C(O[C@@H]1CN(C(=O)OCc2ccccc2)C[C@@H]1O)c1cc(-c2ccccc2)c(=O)n2ccc3ccsc3c12 (racemic) [Compound 57, (3RS,4SR)-1-Benzyloxy-carbonyl-4-hydroxy-pyrrolidin-3-yl 7-oxo-8-phenyl-7H-thieno[2,3-a]quinolizine-10-carboxylate] | 0.5 µM | 35% |
| CCN(CCOC)C(=O)c1cc(-c2ccc(C(C)(C)C)cc2)c(=O)n2ccc3ccsc3c12 [Compound 107, 8-(4-tert-Butyl-phenyl)-7-oxo-7H-thieno[2,3-a]quinolizine-10-carboxylicacid ethyl-(2-methoxy-ethyl)-amide] | 3 µM | 20% |
| O=C1CN(C(=O)c2cc(-c3ccccc3)c(=O)n3ccc4ccsc4c23)C1 [Compound 7, 10-(3-Oxo-azetidin-1-carbonyl)-8-phenyl-thieno[2,3-a]quinolizin-7-one] | 50 µM | 100% |
| CCOC(=O)c1cc(-c2ccc(-c3ccccc3)cc2)c(=O)n2ccc3ccsc3c12 [Compound 94, Ethyl 8-(biphenyl-4-yl)-7-oxo-7H-thieno[2,3-a]quinolizine-10-carboxylate] | – | 20 to 40% |
| COc1cccc(-c2cc(C(=O)Nc3ccc(OC)c(OC)c3)c3c4sccc4ccn3c2=O)c1 [Compound 123, 8-(3-Methoxy-phenyl)-7-oxo-7H-thieno[2,3-a]quinolizine-10-carboxylic acid (3,4-dimethoxy-phenyl)-amide] | 0.8 µM | 100% |
| COCCN(CC1CC1)C(=O)c1cc(-c2ccc(OCc3ccccc3)cc2)c(=O)n2ccc3ccsc3c12 [Compound 70, 8-(4-Benzyloxy-phenyl)-7-oxo-7H-thieno[2,3-a]quinolizine-10-carboxylic acid cyclopropylmethyl-(2-methoxy-ethyl)-amide] | < 1 µM | 100% |
| COCCN(Cc1ccccc1)C(=O)c1cc(-c2ccc(Oc3ccccc3)cc2)c(=O)n2ccc3ccsc3c12 [Compound 100, 7--Oxo-8-(4-phenoxy-phenyl)-7H-thieno[2,3-a]quinolizine-10-carboxylic acid benzyl-(2-methoxy-ethyl)-amide] | 0.6 µM | 100% |
| COCCN(C(=O)c1cc(-c2ccc(OCc3ccccc3)cc2)c(=O)n2ccc3cc(C(=O)O)sc3c12)c1ccccc1 [Compound 80, 8-(4-Benzyloxy-phenyl)-10-[(2-methoxy-ethyl)-phenyl-carbamoyl]-7-oxo-7H-thieno[2,3-a]quinolizine-2-carboxylic acid] | 1 to 3 µM | 30 to 70% |
| COCCN(CCOC)C(=O)c1cc(-c2ccc(Oc3ccccc3)cc2)c(=O)n2ccc3ccsc3c12 [Compound 97, 7-Oxo-8-(4-phenoxy-phenyl)-7H-thieno[2,3-a]quinolizine-10-carboxylic acid bis-(2-methoxy-ethyl)-amide] | 2.2 µM | 100% |
| O=C(c1cc(-c2ccc(OCc3ccccc3)cc2)c(=O)n2ccc3ccsc3c12)N(CCO)c1ccccc1 [Compound 73, 8-(4-Benzyloxy-phenyl)-7-oxo-7H-thieno[2,3-a]quinolizine-10-carboxylic acid (2-hydroxy-ethyl)-phenyl-amide] | 1.3 µM | 55% |
| COCCN(Cc1cccs1)C(=O)c1cc(-c2cccc(OC)c2)c(=O)n2ccc3ccsc3c12 [Compound 125, 8-(3-Methoxy-phenyl)-7-oxo-7H-thieno[2,3-a]quinolizine-10-carboxylic acid (2-methoxy-ethyl)-thiophen-2-yl-methyl-amide] | 2 µM | 10% |
| C#CCN(C(=O)c1cc(-c2cccc(OC)c2)c(=O)n2ccc3ccsc3c12)c1ccccc1 [Compound 127, 8-(3-Methoxy-phenyl)-7-oxo-7H-thieno[2,3-a]quinolizine-10-carboxylic acid phenyl-prop-2-ynyl-amide] | 0.8 µM | 100% |
| COCCN(C(=O)c1cc(-c2ccccc2N)c(=O)n2ccc3ccsc3c12)c1ccccc1 [Compound 153, 8-(2-Amino-phenyl)-7-oxo-7H-thieno[2,3-a]chinolizine-10-carboxylic acid (2-methoxy-ethyl)-phenyl-amide] | – | 20 to 40% |
| COCCNC(=O)c1cc(-c2ccc(Oc3ccccc3)cc2)c(=O)n2ccc3ccsc3c12 [Compound 98, 7-Oxo-8-(4-phenoxy-phenyl)-7H-thieno[2,3-a]quinolizine-10-carboxylic acid (2-methoxy-ethyl)-amide] | 2.4 µM | 70 to 90% |
| COCCN(CCOC)C(=O)c1cc(-c2ccc(OCc3ccccc3)cc2)c(=O)n2ccc3c(ncn3C)c12 [Compound 103, 8-(4-Benzyloxy-phenyl)-3-methyl-7-oxo-3,7-dihydro-imidazo[4,5-a]-quinolizine-10-carboxylic acid bis-(2-methoxy-ethyl)-amide] | 5 µM | 35 to 55% |
| COCCN(CCOC)C(=O)c1cc(-c2ccc(-c3ccccc3)cc2)c(=O)n2ccc3ccsc3c12 [Compound 95, 8-(Biphenyl-4-yl)-7-oxo-7H-thieno[2,3-a]quinolizine-10-carboxylic acid bis-(2-methoxy-ethyl)-amide] | 1.3 µM | 100% |
| C#CCN(C(=O)c1cc(-c2ccccc2OC)c(=O)n2ccc3ccsc3c12)c1ccccc1 [Compound 143, 8-(2-Methoxy-phenyl)-7-oxo-7H-thieno[2,3-a]quinolizine-10-carboxylic acid phenyl-prop-2-ynyl-amide] | 5.5 µM | 40 to 100% |
| COCCNC(=O)c1cc(-c2ccccc2OC)c(=O)n2ccc3ccsc3c12 [Compound 115, 8-(2-Methoxy-phenyl)-7-oxo-7H-thieno[2,3-a]quinolizine-10-carboxylic acid (2-methoxy-ethyl)-amide] | 20 µM | 50% |
| O=C(NC1CCCCC1O)c1cc(-c2ccccc2)c(=O)n2ccc3ccsc3c12 (centres unmarked) [Compound 25] | 10 µM | 100% |
| CCc1cc2ccn3c(=O)c(-c4ccc(OCc5ccccc5)cc4)cc(C(=O)N(CCOC)c4ccccc4)c3c2s1 [Compound 78, 8-(4-Benzyloxy-phenyl)-2-ethyl-7-oxo-7H-thieno[2,3-a]quinolizine-10-carboxylic acid (2-methoxy-ethyl)-phenyl-amide] | – | 40% |
| CCN(CCOC)C(=O)c1cc(-c2ccc(OC)cc2)c(=O)n2ccc3ccsc3c12 [Compound 144, 8-(4-Methoxy-phenyl)-7-oxo-7H-thieno[2,3-a]quinolizine-10-carboxylic acid ethyl-(2-methoxy-ethyl)-amide] | 2 µM | 40% |
| COCCNC(=O)c1cc(-c2ccc(C(C)(C)C)cc2)c(=O)n2ccc3ccsc3c12 [Compound 110, 8-(4-tert-Butyl-phenyl)-7-oxo-7H-thieno[2,3-a]quinolizine-10-carboxylicacid (2-methoxy-ethyl)-amide] | 6.2 µM | 95% |
| COCCN(C(=O)c1cc(-c2ccccc2OC)c(=O)n2ccc3ccsc3c12)c1ccccc1 [Compound 121, 8-(2-Methoxy-phenyl)-7-oxo-7H-thieno[2,3-a]quinolizine-10-carboxylic acid (2-methoxy-ethyl)-phenyl-amide] | 1.8 µM | 100% |
| COCCN(C(=O)c1cc(-c2ccc(OCc3ccccc3)cc2)c(=O)n2ccc3ccsc3c12)c1ccccc1 [Compound 72, 8-(4-Benzyloxy-phenyl)-7-oxo-7H-thieno[2,3-a]quinolizine-10-carboxylic acid (2-methoxy-ethyl)-phenyl-amide] | 0.5 µM | 100% |
| COCCN(C(=O)c1cc(-c2ccc(OCc3ccccc3)cc2)c(=O)n2ccc3cc(C(=O)N(C)C)sc3c12)c1ccccc1 [Compound 76, 8-(4-Benzyloxy-phenyl)-7-oxo-7H-thieno[2,3-a]quinolizine-2,10-dicarboxylicacid 2-dimethylamide 10-[(2-methoxy-ethyl)-phenyl-amide]] | 2.8 µM | 40% |
